Assay results reported in patent US9783530B2, “Factor Xla inhibitors” (Merck Sharp & Dohme Corp., priority 2014, dated 2017).

Key:
[1] = molecular target: purified human Factor XIa (Homo sapiens (Human), UniProt P03951); experiment: Factor XIa Assay; type: biochemical; conditions: purified human Factor XIa 40 pM, substrate Z-Gly-Pro-Arg-AFC, pH 7.4; read-out: FXIa IC50
Protocol: The effectiveness of a compound of the present invention as an inhibitor of Coagulation Factor XIa can be determined using a relevant purified serine protease, and an appropriate synthetic substrate. The rate of hydrolysis of the chromogenic or fluorogenic substrate by the relevant serine protease was measured both in the absence and presence of compounds of the present invention. Assays were conducted at room temperature or at 37° C. […] A decrease in the rate of fluorescence change in the presence of inhibitor is indicative of enzyme inhibition. Such methods are known to one skilled in the art. […]
Factor XIa determinations were made in 50 mM HEPES buffer at pH 7.4 containing 150 mM NaCl, 5 mM CaCl2, and 0.1% PEG 8000 (polyethylene glycol; JT Baker or Fisher Scientific). Determinations were made using purified human Factor XIa at a final concentration of 40 pM (Sekisui Diagnostics) and he synthetic substrate, Z-Gly-Pro-Arg-AFC, TFA salt (Sigma #C0980) at a concentration of 100 µM.
Activity assays were performed by diluting a stock solution of substrate at least tenfold to a final concentration ≦0.1 Km into a solution containing enzyme or enzyme equilibrated with inhibitor. Times required to achieve equilibration between enzyme and inhibitor were determined in control experiments. Initial velocities of product formation in the absence (Vo) or presence of inhibitor (Vi) were measured. Assuming competitive inhibition, and that unity is negligible compared Km/[S], [I]/e, and [I]/e (where [S], [I], and e respectively represent the total concentrations, of substrate, inhibitor and enzyme), the equilibrium constant (Ki) for dissociation of the inhibitor from the enzyme can be obtained from the dependence of Vo/Vi on [I] shown in the following equation.

[2] = molecular target: purified Human plasma kallikrein (Homo sapiens (Human), UniProt P03952); experiment: Kallikrein Assay; type: biochemical; conditions: purified Human plasma kallikrein 0.5 nM, substrate Acetyl-K-P-R-AFC, pH 7.4; read-out: P. KLK IC50
Protocol: The effectiveness of a compound of the present invention as an inhibitor of Kallikrein can be determined using a relevant purified serine protease, and an appropriate synthetic substrate. The rate of hydrolysis of the chromogenic or fluorogenic substrate by the relevant serine protease was measured both in the absence and presence of compounds of the present invention. Assays were conducted at room temperature or at 37° C. […] A decrease in the rate of fluorescence change in the presence of inhibitor is indicative of enzyme inhibition. Such methods are known to one skilled in the art. The results of this assay are expressed as the inhibitory constant, Ki.
Kallikrein determinations were made in 50 mM HEPES buffer at pH 7.4 containing 150 mM NaCl, 5 mM CaCl2, and 0.1% PEG 8000 (polyethylene glycol; Fisher Scientific). Determinations were made using purified Human plasma kallikrein at a final concentration of 0.5 nM (Enzyme Research Laboratories) and the synthetic substrate, Acetyl-K-P-R-AFC (Sigma # C6608) at a concentration of […].
Activity assays were performed by diluting a stock solution of substrate at least tenfold to a final concentration ≦0.2 Km into a solution containing enzyme or enzyme equilibrated with inhibitor. Times required to achieve equilibration between enzyme and inhibitor were determined in control experiments. The reactions were performed under linear progress curve conditions and fluorescence increase measured at 405 Ex/510 Em nm. Values were converted to percent inhibition of the control reaction (after subtracting 100% Inhibition value). IC50 was determined by inflection point from a four parameter logistic curve fit. Ki was calculated using the Cheng Prusoff equation, Ki=IC50/(1+([S]/Km)).

Sequence of purified Human plasma kallikrein (P03952 391-638): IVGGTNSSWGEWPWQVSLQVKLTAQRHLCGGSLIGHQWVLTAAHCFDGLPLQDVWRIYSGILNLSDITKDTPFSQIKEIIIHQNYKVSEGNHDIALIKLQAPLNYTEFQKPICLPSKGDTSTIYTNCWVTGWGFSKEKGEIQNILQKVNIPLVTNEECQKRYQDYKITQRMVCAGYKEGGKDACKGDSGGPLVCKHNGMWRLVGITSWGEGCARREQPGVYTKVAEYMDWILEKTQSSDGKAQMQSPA
Sequence of purified Human plasma kallikrein (P03952 20-390 partner): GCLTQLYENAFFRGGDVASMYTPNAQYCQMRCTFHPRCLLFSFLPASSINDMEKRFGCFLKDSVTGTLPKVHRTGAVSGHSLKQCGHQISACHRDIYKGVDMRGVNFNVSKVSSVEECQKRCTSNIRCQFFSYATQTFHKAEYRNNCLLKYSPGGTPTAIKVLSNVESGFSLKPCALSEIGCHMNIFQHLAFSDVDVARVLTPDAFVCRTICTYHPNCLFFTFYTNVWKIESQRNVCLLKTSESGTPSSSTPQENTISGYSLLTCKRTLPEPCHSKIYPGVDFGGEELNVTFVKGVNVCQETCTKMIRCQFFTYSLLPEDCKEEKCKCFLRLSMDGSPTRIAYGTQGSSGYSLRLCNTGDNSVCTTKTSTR
Sequence of purified human Factor XIa (P03951 388-625): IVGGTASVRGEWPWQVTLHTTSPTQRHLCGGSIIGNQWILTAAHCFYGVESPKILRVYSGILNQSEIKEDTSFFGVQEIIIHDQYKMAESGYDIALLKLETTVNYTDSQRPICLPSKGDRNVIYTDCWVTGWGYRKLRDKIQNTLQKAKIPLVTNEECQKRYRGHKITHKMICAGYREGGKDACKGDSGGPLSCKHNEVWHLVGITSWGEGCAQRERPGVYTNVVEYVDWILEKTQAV
Sequence of purified human Factor XIa (P03951 19-387 partner): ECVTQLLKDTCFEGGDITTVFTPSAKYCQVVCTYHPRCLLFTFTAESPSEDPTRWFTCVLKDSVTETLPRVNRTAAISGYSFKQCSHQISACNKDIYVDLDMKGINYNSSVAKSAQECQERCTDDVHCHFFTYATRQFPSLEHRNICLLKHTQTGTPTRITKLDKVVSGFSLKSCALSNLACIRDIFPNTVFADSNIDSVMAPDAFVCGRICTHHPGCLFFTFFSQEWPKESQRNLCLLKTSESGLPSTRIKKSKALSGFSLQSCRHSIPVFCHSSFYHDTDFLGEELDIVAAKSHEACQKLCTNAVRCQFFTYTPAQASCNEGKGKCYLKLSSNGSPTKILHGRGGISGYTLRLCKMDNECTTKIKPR

Compound	IC50 [1]	IC50 [2]
O=C(Cc1ccc(-c2cc(Cl)ccc2-n2cnnn2)c[n+]1[O-])Nc1ccc(C(=O)O)cc1 [Example 14, 4-[({5-[5-chloro-2-(1H-tetrazol-1-yl)phenyl]-1-oxidopyridin-2-yl}acetyl)amino] benzoic acid]	18.5 nM	1350 nM
O=C(NC12CCC(C(=O)O)(CC1)CC2)C(Cc1ccccc1)c1ccc(-c2c(F)ccc(Cl)c2F)c[n+]1[O-] (single isomer, unassigned) [Example 15, 4-({2-[5-(3-chloro-2,6-difluorophenyl)-1-oxidopyridin-2-yl]-3-phenylpropanoyl}amino) bicyclo[2.2.2]octane-1-carboxylic acid]	111 nM	45 nM
O=C(Nc1ccc2cn[nH]c2c1)C(Cc1ccccc1)c1ccc(-c2c(F)ccc(Cl)c2F)c[n+]1[O-] (racemic) [Example 5, 2-[5-(3-chloro-2,6-difluorophenyl)-1-oxidopyridin-2-yl]-N-1H-indazol-6-yl-3-phenylpropanamide]	109 nM	91.4 nM
O=C(O)c1ccc(NC(=O)[C@@H](Cc2ccc(F)cc2)c2ccc(-c3cc(Cl)ccc3-n3cnnn3)c[n+]2[O-])cc1 [Example 7, 4-{[(2S)-2-{5-[5-chloro-2-(1H-tetrazol-1-yl)phenyl]-1-oxidopyridin-2-yl}-3-(4-fluorophenyl)propanoyl]amino}benzoic acid]	14.2 nM	67.1 nM
O=C(O)c1ccc(NC(=O)C(CC2CC2)c2ccc(-c3c(-n4cnnn4)ccc(Cl)c3F)c[n+]2[O-])cc1 (racemic) [Example 50, 4-[(2-{5-[3-chloro-2-fluoro-6-(1H-tetrazol-1-yl)phenyl]-1-oxidopyridin-2-yl}-3-cyclopropylpropanoyl)amino]benzoic acid]	0.19 nM	25.1 nM
O=C(O)c1ccc(NC(=O)[C@H](Cc2ccccc2)c2ccc(-c3c(F)ccc(Cl)c3F)c[n+]2[O-])cc1 [Example 4, 4-({(2R)-2-[5-(3-chloro-2,6-difluorophenyl)-1-oxidopyridin-2-yl]-3-phenylpropanoyl}amino) benzoic acid]	3.63 nM	18.2 nM
O=C(O)c1ccc(NC(=O)[C@H](CC2CC2)c2ccc(-c3cc(Cl)ccc3-n3cnnn3)c[n+]2[O-])cc1 [Example 27, 4-{[(2R)-2-{5-[5-chloro-2-(1H-tetrazol-1-yl)phenyl]-1-oxidopyridin-2-yl}-3-cyclopropylpropanoyl]amino}benzoic acid]	0.14 nM	23.8 nM
O=C(O)c1ccc(NC(=O)C(CC2CC2)c2ccc(-c3cc(Cl)ccc3-n3cnnn3)c[n+]2[O-])cc1F (single isomer, unassigned) [Example 44, 4-[(2-{5-[5-chloro-2-(1H-tetrazol-1-yl)phenyl]-1-oxidopyridin-2-yl}-3-cyclopropylpropanoyl)amino]-2-fluorobenzoic acid]	18 nM	3260 nM
O=C(O)c1ccc(NC(=O)C(CC2CC2)c2ccc(-c3cc(Cl)ccc3-n3cc(CO)nn3)c[n+]2[O-])cc1 (racemic) [Example 42, 4-{[2-(5-{5-chloro-2-[4-(hydroxymethyl)-1H-1,2,3-triazol-1-yl]phenyl}-1-oxidopyridin-2-yl)-3-cyclopropylpropanoyl]amino}benzoic acid]	8.45 nM	1610 nM
Cc1cc(C(=O)O)ccc1NC(=O)C(CC1CC1)c1ccc(-c2cc(Cl)ccc2-n2cnnn2)c[n+]1[O-] (single isomer, unassigned) [Example 47, 4-[(2-{5-[5-chloro-2-(1H-tetrazol-1-yl)phenyl]-1-oxidopyridin-2-yl}-3-cyclopropylpropanoyl)amino]-3-methylbenzoic acid]	15.1 nM	2350 nM
O=C(NC12CCC(C(=O)O)(CC1)CC2)C(Cc1ccccc1)c1ccc(-c2cc(Cl)ccc2-n2cnnn2)c[n+]1[O-] (single isomer, unassigned) [Example 17, 4-[(2-{5-[5-chloro-2-(1H-tetrazol-1-yl)phenyl]-1-oxidopyridin-2-yl}-3-phenylpropanoyl)amino] bicyclo[2.2.2]octane-1-carboxylic acid]	0.76 nM	144 nM
O=C(O)c1ccc(NC(=O)C(CC2CC2)c2ccc(-c3cc(Cl)ccc3-n3cc(C(F)F)nn3)c[n+]2[O-])cc1 (racemic) [Example 41, 4-{[2-(5-{5-chloro-2-[4-(difluoromethyl)-1H-1,2,3-triazol-1-yl]phenyl}-1-oxidopyridin-2-yl)-3-cyclopropylpropanoyl]amino}benzoic acid]	–	363 nM
O=C(O)c1ccc(NC(=O)C(CC2CC2)c2ccc(-c3cc(Cl)ccc3-n3cnnn3)c[n+]2[O-])cc1F (single isomer, unassigned) [Example 45, 4-[(2-{5-[5-chloro-2-(1H-tetrazol-1-yl)phenyl]-1-oxidopyridin-2-yl}-3-cyclopropylpropanoyl)amino]-2-fluorobenzoic acid]	0.07 nM	17.6 nM
O=C(O)c1ccc(NC(=O)[C@H](Cc2ccccc2)c2ccc(-c3cc(Cl)ccc3-n3cnnn3)c[n+]2[O-])cc1 [Example 2, 4-{[(2R)-2-{5-[5-chloro-2-(1H-tetrazol-1-yl)phenyl]-1-oxidopyridin-2-yl}-3-phenylpropanoyl]amino} benzoic acid]	0.16 nM	1.2 nM
COc1cc(C(Cc2ccccc2)C(=O)Nc2ccc(C(=O)O)cc2)[n+]([O-])cc1-c1cc(Cl)ccc1C#N (single isomer, unassigned) [Example 23, 2-(1-((4-carboxyphenyl)amino)-1-oxo-3-phenylpropan-2-yl)-5-(5-chloro-2-cyanophenyl)-4-methoxypyridine 1-oxide]	9.39 nM	24.6 nM
N#Cc1ccc(Cl)c(F)c1-c1ccc(C(CC2CC2)C(=O)Nc2ccc(C(=O)O)cc2)[n+]([O-])c1 (single isomer, unassigned) [Example 30, 4-({2-[5-(3-chloro-6-cyano-2-fluorophenyl)-1-oxidopyridin-2-yl]-3-cyclopropylpropanoyl}amino)benzoic acid]	4.24 nM	80.4 nM
Cc1cc(NC(=O)C(CC2CC2)c2ccc(-c3cc(Cl)ccc3-n3cnnn3)c[n+]2[O-])ccc1C(=O)O (single isomer, unassigned) [Example 48, 4-[(2-{5-[5-chloro-2-(1H-tetrazol-1-yl)phenyl]-1-oxidopyridin-2-yl}-3-cyclopropylpropanoyl)amino]-2-methylbenzoic acid]	0.46 nM	83.1 nM
O=C(O)c1ccc(NC(=O)[C@@H](Cc2ccccc2)c2ccc(-c3cc(Cl)ccc3-n3cnnn3)c[n+]2[O-])cc1 [Example 1, 4-{[(2S)-2-{5-[5-chloro-2-(1H-tetrazol-1-yl)phenyl]-1-oxidopyridin-2-yl}-3-phenylpropanoyl]amino} benzoic acid]	32.7 nM	83.1 nM
Cc1cc(C(Cc2ccccc2)C(=O)Nc2ccc(C(=O)O)cc2)[n+]([O-])cc1-c1c(F)ccc(Cl)c1F (centres unmarked) [Example 25, 2-(1-((4-carboxyphenyl)amino)-1-oxo-3-phenylpropan-2-yl)-5-(3-chloro-2,6-difluorophenyl)-4-methylpyridine 1-oxide]	8.32 nM	42.3 nM
O=C(Nc1ccc2cn[nH]c2c1)C(Cc1ccccc1)c1ccc(-c2cc(Cl)ccc2-n2cnnn2)c[n+]1[O-] (racemic) [Example 6, 2-{5-[5-chloro-2-(1H-tetrazol-1-yl)phenyl]-1-oxidopyridin-2-yl}-N-1H-indazol-6-yl-3-phenylpropanamide]	0.24 nM	1.9 nM
O=C(O)c1ccc(NC(=O)C(CC2CC2)c2ccc(-c3cc(Cl)ccc3OC(F)(F)F)c[n+]2[O-])cc1 (single isomer, unassigned) [Example 39, 4-[(2-{5-[5-chloro-2-(trifluoromethoxy)phenyl]-1-oxidopyridin-2-yl}-3-cyclopropylpropanoyl)amino]benzoic acid]	18.9 nM	830 nM
